Test results: PubChem BioAssay AID212 (DTP/NCI, 2004)
“And” between values parts separate entries of the source, which are not always exact repeats. Identical values can stand only once. Results filed as inconclusive are left out.

Test system: BDF1 mice, colon carcinoma 38 sc, T/C %
Test: NCI In Vivo Anticancer Drug Screen. Data for tumor model Colon Carcinoma 38 (subcutaneous) in B6D2F1 (BDF1) mice
Settings: endpoint: median tumor weight (est.), higher = larger tumour
Outline: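 Transplantable tumor in mice; compound-treated vs vehicle-dosed controls. Measured survival or tumor size; value = T ÷ C.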

[1] = dose: 12.5 mg/kg/injection, schedule: Q07DX002 (ip), vehicle: saline
[2] = dose: 25.0 mg/kg/injection, schedule: Q07DX002 (ip), vehicle: saline
[3] = dose: 50.0 mg/kg/injection, schedule: Q07DX002 (ip), vehicle: saline
[4] = dose: 400.0 mg/kg/injection, schedule: Q07DX002 (ip), vehicle: saline
[5] = dose: 12.5 mg/kg/injection, schedule: Q07DX002 (ip), vehicle: Klucel (hydroxypropylcellulose) (HPC)
[6] = dose: 25.0 mg/kg/injection, schedule: Q07DX002 (ip), vehicle: Klucel (hydroxypropylcellulose) (HPC)
[7] = dose: 50.0 mg/kg/injection, schedule: Q07DX002 (ip), vehicle: Klucel (hydroxypropylcellulose) (HPC)
[8] = dose: 100.0 mg/kg/injection, schedule: Q07DX002 (ip), vehicle: Klucel (hydroxypropylcellulose) (HPC)
[9] = dose: 200.0 mg/kg/injection, schedule: Q07DX002 (ip), vehicle: Klucel (hydroxypropylcellulose) (HPC)

CN=C(N)N/N=C(\C)c1ccc2c(c1)Cc1cc(/C(C)=N/NC(N)=NC)ccc1-2
T/C (dose: 0.75 mg/kg/injection, schedule: Q07DX002 (ip), vehicle: saline with Tween-80): 104 % of control | T/C (dose: 3.0 mg/kg/injection, schedule: Q07DX002 (ip), vehicle: saline with Tween-80): 115 % of control

O=c1n(CC2CO2)c(=O)n(CC2CO2)n1CC1CO1 (configuration not stated)
T/C [1]: 25 % of control | T/C [2]: 25 % of control | T/C [3]: 18 % of control

Cc1cc(NCCCCCCNc2cc(C)nc3cc(N(C)C)ccc23)c2ccc(N(C)C)cc2n1
T/C (dose: 6.0 mg/kg/injection, schedule: Q07DX002 (ip), vehicle: distilled water + Tween-80 + alcohol): 107 % of control | T/C (dose: 12.5 mg/kg/injection, schedule: Q07DX002 (ip), vehicle: distilled water + Tween-80 + alcohol): 99 % of control | T/C (dose: 25.0 mg/kg/injection, schedule: Q07DX002 (ip), vehicle: distilled water + Tween-80 + alcohol): 95 % of control | T/C (dose: 50.0 mg/kg/injection, schedule: Q07DX002 (ip), vehicle: distilled water + Tween-80 + alcohol): 105 % of control | T/C (dose: 100.0 mg/kg/injection, schedule: Q07DX002 (ip), vehicle: distilled water + Tween-80 + alcohol): 90 % of control

CCOC(=O)C1C2OC(=O)C(C(=O)C2CN(CCCl)CCCl)C1C1CC=C(CC2=CCC(C3C4C(=O)OC(C(CN(CCCl)CCCl)C4=O)C3C(=O)OCC)CC2)CC1 (configuration not stated)
T/C (dose: 12.5 mg/kg/injection, schedule: Q07DX003 (ip), vehicle: Klucel (hydroxypropylcellulose) (HPC)): 95 % of control | T/C (dose: 25.0 mg/kg/injection, schedule: Q07DX003 (ip), vehicle: Klucel (hydroxypropylcellulose) (HPC)): 117 % of control | T/C (dose: 50.0 mg/kg/injection, schedule: Q07DX003 (ip), vehicle: Klucel (hydroxypropylcellulose) (HPC)): 116 % of control | T/C (dose: 100.0 mg/kg/injection, schedule: Q07DX003 (ip), vehicle: Klucel (hydroxypropylcellulose) (HPC)): 110 % of control | T/C (dose: 200.0 mg/kg/injection, schedule: Q07DX003 (ip), vehicle: Klucel (hydroxypropylcellulose) (HPC)): 67 % of control

CC1=CC(=NN=c2cc(C)n([O-])c(C)c2)C=C(C)[N+]1=O
T/C [1]: 82 % of control | T/C [2]: 108 % of control | T/C (dose: 25.0 mg/kg/injection, schedule: Q07DX002 (ip), vehicle: suspension in saline): 123 % of control | T/C [3]: 73 % of control | T/C (dose: 100.0 mg/kg/injection, schedule: Q07DX002 (ip), vehicle: suspension in saline): 97 % of control | T/C (dose: 200.0 mg/kg/injection, schedule: Q07DX002 (ip), vehicle: saline): 99 % of control | T/C (dose: 200.0 mg/kg/injection, schedule: Q07DX002 (ip), vehicle: suspension in saline): 121 % of control | T/C [4]: 90 % of control | T/C (dose: 400.0 mg/kg/injection, schedule: Q07DX002 (ip), vehicle: suspension in saline): 98 % of control

CCN(CC)CCOC(=O)Cc1cc(OC)cc2c(=O)cc(-c3ccccc3)oc12
T/C [5]: 65 % of control | T/C [6]: 82 % of control | T/C [7]: 56 % of control | T/C [8]: 111 % of control | T/C [9]: 104 % of control

COc1cccc2c1C(=N)c1c(O)c3c(c(O)c1C2=O)C[C@@](O)(C(C)=O)C[C@@H]3OC1CC(N)C(O)C(C)O1 (some centres not stated)
T/C (dose: 2.25 mg/kg/injection, schedule: Q07DX002 (ip), vehicle: saline): 71 % of control | T/C (dose: 4.5 mg/kg/injection, schedule: Q07DX002 (ip), vehicle: saline): 115 % of control | T/C (dose: 9.0 mg/kg/injection, schedule: Q07DX002 (ip), vehicle: saline): 99 % of control

C=C(C)[C@]12CC(C)C34OC(/C=C\C=C\CCCCCCCCC)(O[C@@H]1[C@@H]3[C@@H]1O[C@]1(CO)[C@@H](O)[C@]1(O)C(=O)C(C)=C[C@@H]41)O2 (some centres not stated)
T/C (dose: 0.18 mg/kg/injection, schedule: Q07DX002 (ip), vehicle: distilled water + alcohol): 109 % of control | T/C (dose: 0.37 mg/kg/injection, schedule: Q07DX002 (ip), vehicle: distilled water + alcohol): 76 % of control | T/C (dose: 0.75 mg/kg/injection, schedule: Q07DX002 (ip), vehicle: distilled water + alcohol): 105 % of control | T/C (dose: 1.5 mg/kg/injection, schedule: Q07DX002 (ip), vehicle: distilled water + alcohol): 75 % of control

CC(=O)OC1=NC(C)c2c1cc(OC(C)=O)[nH]c2=O (configuration not stated)
T/C (dose: 6.25 mg/kg/injection, schedule: Q07DX002 (ip), vehicle: Klucel (hydroxypropylcellulose) (HPC)): 124 % of control | T/C [5]: 70 % of control and 85 % of control | T/C [9]: 100 % of control

CCC1OC(OC)C=CC1=O (configuration not stated)
T/C (dose: 25.0 mg/kg/injection, schedule: Q07DX002 (ip), vehicle: saline with Tween-80): 92 % of control | T/C (dose: 50.0 mg/kg/injection, schedule: Q07DX002 (ip), vehicle: saline with Tween-80): 73 % of control | T/C (dose: 100.0 mg/kg/injection, schedule: Q07DX002 (ip), vehicle: saline with Tween-80): 73 % of control

O=c1[nH]c(=O)n(C2OC(CO)C(O)C2O)cc1F (configuration not stated)
T/C (dose: 3.12 mg/kg/injection, schedule: Q07DX002 (ip), vehicle: saline): 121 % of control | T/C (dose: 6.25 mg/kg/injection, schedule: Q07DX002 (ip), vehicle: saline): 106 % of control | T/C [1]: 64 % of control

CC(=O)OCC1OC(OC2=C(CC=C(C)C)C(=O)c3ccccc3C2=O)C(OC(C)=O)C(OC(C)=O)C1OC(C)=O (configuration not stated)
T/C [5]: 205 % of control and 81 % of control | T/C [6]: 181 % of control | T/C [7]: 113 % of control and 103 % of control | T/C [8]: 151 % of control | T/C [9]: 190 % of control

CC(C)CC(NC(=O)CF)C(=O)O (configuration not stated)
T/C (dose: 0.62 mg/kg/injection, schedule: Q07DX002 (ip), vehicle: saline): 46 % of control | T/C (dose: 0.63 mg/kg/injection, schedule: Q07DX002 (ip), vehicle: saline): 75 % of control | T/C (dose: 1.25 mg/kg/injection, schedule: Q07DX002 (ip), vehicle: saline): 94 % of control and 96 % of control | T/C (dose: 5.0 mg/kg/injection, schedule: Q07DX002 (ip), vehicle: saline): 74 % of control and 76 % of control | T/C (dose: 10.0 mg/kg/injection, schedule: Q07DX002 (ip), vehicle: saline): 71 % of control and 92 % of control

CC1=C(/C=C/C(C)=C/C=C/C(C)=C/CO)C(C)(C)CCC1
T/C (dose: 8.0 mg/kg/injection, schedule: Q07DX003 (ip), vehicle: saline with Tween-80): 113 % of control and 106 % of control | T/C (dose: 32.0 mg/kg/injection, schedule: Q07DX003 (ip), vehicle: saline with Tween-80): 194 % of control | T/C (dose: 64.0 mg/kg/injection, schedule: Q07DX003 (ip), vehicle: saline with Tween-80): 111 % of control and 122 % of control

ClCC[N+]12CC[N+](CCCl)(CC1)C2
T/C [1]: 115 % of control and 123 % of control | T/C (dose: 12.5 mg/kg/injection, schedule: Q07DX003 (ip), vehicle: saline): 56 % of control | T/C (dose: 12.5 mg/kg/injection, schedule: Q07DX003 (ip), vehicle: water): 84 % of control | T/C (dose: 25.0 mg/kg/injection, schedule: Q07DX003 (ip), vehicle: saline): 65 % of control | T/C (dose: 25.0 mg/kg/injection, schedule: Q07DX003 (ip), vehicle: water): 78 % of control | T/C (dose: 50.0 mg/kg/injection, schedule: Q07DX003 (ip), vehicle: saline): 72 % of control | T/C (dose: 50.0 mg/kg/injection, schedule: Q07DX003 (ip), vehicle: water): 44 % of control | T/C (dose: 100.0 mg/kg/injection, schedule: Q07DX003 (ip), vehicle: saline): 123 % of control | T/C (dose: 100.0 mg/kg/injection, schedule: Q07DX003 (ip), vehicle: water): 45 % of control | T/C (dose: 200.0 mg/kg/injection, schedule: Q07DX003 (ip), vehicle: saline): 70 % of control | T/C [4]: 47 % of control and 52 % of control | T/C (dose: 400.0 mg/kg/injection, schedule: Q07DX003 (ip), vehicle: saline): 115 % of control

C=C1C(O)C2(O)OCC34C(CC5C(C)=CC(=O)C(O)C5(C)C23)OC(=O)C(OC(=O)C(C)(O)CC)C14 (configuration not stated)
T/C (dose: 0.12 mg/kg/injection, schedule: Q07DX002 (ip), vehicle: saline + alcohol): 93 % of control | T/C (dose: 0.25 mg/kg/injection, schedule: Q07DX002 (ip), vehicle: saline + alcohol): 71 % of control | T/C (dose: 0.5 mg/kg/injection, schedule: Q07DX002 (ip), vehicle: saline + alcohol): 93 % of control | T/C (dose: 1.0 mg/kg/injection, schedule: Q07DX002 (ip), vehicle: saline + alcohol): 52 % of control | T/C (dose: 2.0 mg/kg/injection, schedule: Q07DX002 (ip), vehicle: saline + alcohol): 57 % of control

CCCCNc1ccc2nnc(C)n2n1
T/C (dose: 25.0 mg/kg/injection, schedule: Q07DX002 (ip), vehicle: other): 102 % of control | T/C (dose: 200.0 mg/kg/injection, schedule: Q07DX002 (ip), vehicle: other): 98 % of control and 108 % of control
